This is an account of results in BindingDB's records for doi:10.1016/j.bmc.2006.12.026 (University of North Carolina At Chapel Hill, 2007).

The target of the test is T1, Nuclear receptor subfamily 1 group I member 2 (Homo sapiens, UniProt O75469).
T1 sequence (O75469 whole entry): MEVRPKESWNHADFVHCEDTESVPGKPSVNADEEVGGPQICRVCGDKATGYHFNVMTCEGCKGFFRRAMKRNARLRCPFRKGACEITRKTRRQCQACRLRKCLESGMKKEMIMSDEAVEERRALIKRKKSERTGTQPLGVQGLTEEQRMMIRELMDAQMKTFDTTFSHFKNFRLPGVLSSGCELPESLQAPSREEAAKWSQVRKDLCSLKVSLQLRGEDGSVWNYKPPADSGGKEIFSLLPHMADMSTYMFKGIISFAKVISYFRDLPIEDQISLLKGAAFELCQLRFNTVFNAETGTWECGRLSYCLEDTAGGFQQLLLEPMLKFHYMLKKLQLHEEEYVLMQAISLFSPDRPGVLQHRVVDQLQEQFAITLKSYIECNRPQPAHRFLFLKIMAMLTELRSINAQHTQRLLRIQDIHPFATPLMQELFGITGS
Kind of test: Competition Ligand Binding Assay and Transient Transfection Assay. Conditions: pH 8; 22 °C. The protocol:
Polylysine YiO imaging beads (Amersham, GE Healthcare) were coated with histidine-tagged WT PXR LBD. Nonspecific binding sites were blocked with BSA. [N-Methyl-3H]-GW0438X was added to the blocked receptor-bead. The receptor-bead-radioligand mix was added directly to test compounds in 384-well plates. […] Nonspecific binding was determined in the presence of 10 uM GW0438. Data analysis was achieved using a three-parameter fit. The data were calculated as pIC50s. The pEC50 values were obtained from measurement of Luciferase reporter activity in CV-1 cells transfected with full-length hPXR.

Molecules are shown by their SMILES.

`O=S(=O)(c1ccccc1)N(CC(F)(F)F)c1ccc(C(O)(C2CCCCC2)C(F)(F)F)cc1` (stereo not drawn) [N-[4-(1-cyclohexyl-2,2,2-trifluoro-1-hydroxyethyl)phenyl]-N-(2,2,2-trifluoroethyl)benzenesulfonamide]: the EC50 – broadly, the concentration needed to bring the measured effect to its halfway point – was determined as 3 nM.

Turning to `CCC(O)(c1ccc(N(CC(F)(F)F)S(=O)(=O)c2ccccc2)cc1)C(F)(F)F` (stereo not drawn) [N-[4-(1,1,1-trifluoro-2-hydroxybutan-2-yl)phenyl]-N-(2,2,2-trifluoroethyl)benzenesulfonamide], the response was half-maximal at 126 nM (EC50) and the IC50 (commonly the point on the concentration scale where inhibition reaches its midpoint) was 251 nM.
